Results as given in US4428957A, “6-Isothiocyano-5-methoxy-2-tert.-butylbenzthiazole and a method of controlling ruminant liver flukes therewith” (Ciba-Geigy Corporation, priority 1978, dated 1984).
Like-named read-outs stand apart in the source and are kept apart here.

Legend:
Fasciola hepatica = experiment: Test on sheep infested with Fasciola hepatica; format: in vivo, Fasciola hepatica (host: sheep); conditions: for minimal effective dose: Fasciola hepatica
Excerpt: The active substance is introduced in the form of a suspension, by means of a stomach probe or by injection, into the rumen of sheep which have been artificially infested with Fasciola hepatica. Three animals are used per test and per dose, each animal being treated with just one single dose. An initial evaluation is made by comparing the numbers of worm eggs excreted in the droppings of the sheep before and after the treatment. The sheep are killed and dissected three to four weeks after the treatment. The second evaluation is on the basis of a count of the liver flukes which have remained behind in the hepatic ducts after the treatment. Simultaneously and similarly infested but untreated sheep are used as a control or comparison. The difference in the numbers of liver flukes in the two groups is a measure of the degree of effectiveness of the active substance tested.
(§1) The active substances are introduced in the form of a suspension, by means of a stomach probe or by injection, into the rumen of the experimental animals. Three to five sheep are used per test and per dose, each animal being treated with just one single dose. The sheep are kept under observation during 14 days after the treatment, and they are weighed at regular intervals. Any clinical symptoms and cases of death occurring are recorded during this period. Similar sheep (with regard to breed, age and weight) which have not been treated with the respective active substance are kept as control animals together with the treated experimental animals. The same parameters are recorded in the case of the control sheep as in the case of the treated sheep. The minimum effective dose (MED) of 25 mg/kg (see Table) in the case of the compound of formula I is effective in sheep not only against Fasciola hepatica but also against nematodes such as Haemonchus concortus, Trichostrongylus colubriformis and Ostertagia circumcincta, and against cestodes such as Moniezia benedeni.

[1] = Compatibility in the case of the sheep; conditions: in vivo; for MTD at 336 h: single dose into the rumen, 14 days observation, read-out: MTD (maximum tolerated dose)
Procedure: as §1

Haemonchus contortus = experiment: Test on sheep infected with nematodes: Haemonchus contortus; format: in vivo, Haemonchus contortus (host: sheep); conditions: read-out: minimum effective dose (MED), effective also against Haemonchus concortus
Excerpt: (§2) The active substance is introduced in the form of a suspension by means of a stomach probe, or by injection, into the rumen of sheep which have been artificially infested with nematodes such as Haemonchus controtus and Trichostrongylus colubriformis. Three animals are used per test and per dose, each sheep being treated with just one single dose. An initial evaluation is made by comparing the numbers of worm eggs excreted in the dropping of the sheep before and after the treatment. Seven to ten days after the treatment, the sheep are killed and dissected. A second evaluation is then made by carrying out a count of the worm which have remained behind in the intestine after the treatment. Sheep which have been simultaneously and similarly infested but not treated with the active substance are used as a control or comparison.

[2] = system: Trichostrongylus colubriformis; experiment: Test on sheep infected with nematodes: Trichostrongylus colubriformis; format: in vivo, Trichostrongylus colubriformis (host: sheep); conditions: read-out: minimum effective dose (MED), effective also against Trichostrongylus colubriformis
Excerpt: as §2

Ostertagia circumcincta = experiment: Test on sheep infected with nematodes: Ostertagia circumcincta; format: in vivo, Ostertagia circumcincta (host: sheep); conditions: Teladorsagia circumcincta, read-out: minimum effective dose (MED), effective also against Ostertagia circumcincta
Excerpt: as §2

Moniezia benedeni = experiment: Test on sheep infested with cestodes: Moniezia benedeni; format: in vivo, Moniezia benedeni (host: sheep); conditions: read-out: minimum effective dose (MED), effective also against Moniezia benedeni
Excerpt: The active substance is introduced in the form of a suspension, by means of a stomach probe or by injection, into the rumen of sheep which are infested with cestodes such as Moniezia benedeni. Three animals are used per test and per dose, each sheep being treated with just one single dose. The sheep are killed and dissected seven to ten days after the treatment. The evaluation is made on the basis of a count of the worms which have remained behind in the intestine after the treatment. Sheep which have been simultaneously and similarly infested but not treated with the active substance are used as a control or comparison.

Litomosoides carinii = experiment: filariasis: Litomosoides carinii in Mongolian jirds and multimammate rats; format: in vivo
Dipetalonea viteae = experiment: filariasis: Dipetalonea viteae in Mongolian jirds and multimammate rats; format: in vivo
Brugia pahangi = experiment: filariasis: Brugia pahangi in multimammate rats; format: in vivo, Brugia pahangi (host: multimammate rats)
Brugia malayi = experiment: filariasis: Brugia malayi in multimammate rats; format: in vivo, Brugia malayi (host: multimammate rats)
Schistosoma mansoni = experiment: schistosomiasis: Schistosoma mansoni in mice and Syrian hamsters; format: in vivo, Schistosoma mansoni (host: mice and Syrian hamsters)
Schistosoma japonicum = experiment: schistosomiasis: Schistosoma japonicum in dogs; format: in vivo, Schistosoma japonicum (host: dogs)
Nipprostrongylus species = experiment: gastro-intestinal helminths: tests with various Nipprostrongylus species; format: in vivo; conditions: compound and its non-toxic salts
[3] = system: parasitic helminths, especially Nematodes and Trematodes; experiment: anthelmintic activity against parasitic helminths, various test models; format: in vivo
[4] = read-out: MED (minimum effective dose)

With `CC(C)(C)c1nc2ccc(N=C=S)cc2s1` [No. 2, reference compound] the minimal effective dose (Fasciola hepatica; [4]) was 100 mg/kg and the MTD at 336 h [1] was 200 mg/kg.

For `COc1cc2nc(C(C)C)sc2cc1N=C=S` [No. 3, reference compound], the minimal effective dose (Fasciola hepatica; [4]) was greater than 100 mg/kg and the MTD at 336 h [1] was 200 mg/kg.

`CC(C)c1nc2ccc(N=C=S)cc2s1` [No. 4, reference compound] gave a minimal effective dose (Fasciola hepatica; [4]) greater than 200 mg/kg and an MTD at 336 h [1] of 200 mg/kg.

In the case of `COc1cc2nc(C(C)(C)C)sc2cc1N=C=S` [compound of the formula I, 6-isothiocyano-5-methoxy-2-tert.-butyl-benzothiazole], the minimal effective dose (Fasciola hepatica; [4]) was 25 mg/kg, the “action against liver flukes in sheep” value (Fasciola hepatica; sheep) was “excellent action against liver flukes in sheep” and the minimal effective dose (Fasciola hepatica; sheep, read-out: minimum effective dose (MED)) was 25 mg/kg. For the same compound, the selectivity ratio ([1]; liver flukes, read-out: therapeutic index (maximum tolerated dose/minimum effective dose)) was roughly 13, the MTD at 336 h [1] was 320 mg/kg and the minimal effective dose (Haemonchus contortus) was 25 mg/kg. For the same compound, the minimal effective dose [2] was 25 mg/kg, the minimal effective dose (Ostertagia circumcincta) was 25 mg/kg and the minimal effective dose (Moniezia benedeni) was 25 mg/kg. For the same compound, the “potency against filariasis, micro- and macrofilariae” value (from here on “potency against filariasis”) (Litomosoides carinii) was “pronounced potency”, the “potency against filariasis” value (Dipetalonea viteae) was “pronounced potency” and the “potency against filariasis” value (Brugia pahangi) was “pronounced potency”. For the same compound, the “potency against filariasis” value (Brugia malayi) was “pronounced potency”, the antischistosomal effects (Schistosoma mansoni) was “pronounced antischistosomal effects” and the antischistosomal effects (Schistosoma japonicum) was “pronounced antischistosomal effects”. For the same compound, the “properties against gastro-intestinal helminths” value (Nipprostrongylus species) was “surprising properties against gastro-intestinal helminths”, the anthelmintic properties ([3]; general) was “generally good anthelmintic properties” and the “activity against filariasis, schistosomiasis and gastro-intestinal helminths” value ([3]; various test models) was “excellent activity”. The “anthelminthic activities against a broad variety of parasitic helminths” value ([3]; warm-blooded organisms, compound and non-toxic salts) was “extremely potent anthelminthic activities”.
